From a melting point compilation (Tetko et al.; mined from patent text by program, amines drawn as free bases though some values may be those of a salt)

Row | SMILES | melting point [°C]
1 | Cc1ccc(C)c(OCCCC(C)(C)C(=O)Nc2cccc(C3=NC(C)(C)CO3)c2C)c1 | 51 to 52
2 | CN(c1ccc(CCNCC(O)COc2ccc(OCc3ccccc3)cc2)cc1)C1SC(=O)NC1=O (stereo unspecified) | 51 to 53
3 | CN1CCN(CCCNc2ncc3c(n2)-c2ccccc2C(c2ccc(N)cc2)C3)CC1 (stereo unspecified) | 75 to 77
4 | CS(=O)(=O)Nc1cccc(S(F)(F)(F)(F)F)c1 | 80 to 82
5 | Cc1ccc(OC2=C(Oc3ccc([N+](=O)[O-])cc3)C(F)(F)C(F)(F)C2(F)F)cc1 | 72 to 76
6 | Clc1ccc2c(C3CCN(CCCCC4Cc5ccccc5C4)CC3)c[nH]c2c1 | 139 to 140
7 | CCOC(=O)CC[C@@H](C(=O)OCC)N1C(=O)c2ccc([N+](=O)[O-])cc2C1=O | 65.5 to 66.5
8 | COc1ccc(CN(C)CCc2ccc(NC(=O)c3cccc4c(=O)c5cccc(OC)c5sc34)cc2)cc1OC | 151
9 | CCOC(=O)C=Cc1cc(OCc2ccccc2)ccc1-c1ccc(-c2cccnc2)c(C(F)F)c1 | 93 to 95
10 | O=C(O)c1cccc(CNc2n[nH]c3ncnc(Nc4cccc(Cl)c4)c23)c1 | 294 to 296
11 | CC(=O)Nc1cc([N+](=O)[O-])cc([N+](=O)[O-])c1 | 189 to 191
12 | COc1cccc(C2C(CO)CC(=O)N2c2ccccc2)c1 (stereo unspecified) | 123 to 126
13 | O=C1Cc2ccccc2N1Nc1ccncc1F | 181 to 183
14 | CCCCc1nc2c(N)nc3ccccc3c2n1CCCNC(=S)NCCC | 144 to 146
15 | CN(C(=O)c1ccc2nonc2c1)C1CCS(=O)(=O)CC1 | 238 to 239
16 | COc1cc(NC(=O)NC2CC(O)CC2N2CCC(Cc3ccc(Cl)cc3)CC2)cc(OC)c1OC (stereo unspecified) | 81 to 84
17 | Cc1cccc(Nc2cc(Cl)nc(S(C)(=O)=O)n2)c1C | 140 to 142
18 | NC(=O)N1C(=O)C(C(=O)c2sccc2Br)c2cc(Cl)ccc21 (stereo unspecified) | 216 to 217
19 | CCCCc1cc2cc(NC(C)=O)ccc2o1 | 71 to 73
20 | NC(=O)CC(CC(N)=O)c1cccc(Cl)c1Cl | 194 to 196
21 | Cc1cc(O)nc2[nH]nc(C)c12 | 233 to 235
22 | CCCCCCCCCCCCCCOc1ccc(CCN(C(C)=O)c2cccc(Cc3nccs3)c2)cc1 | 46 to 50
23 | O=C(OCC(Cl)(Cl)Cl)N1C2CCC1CC(Sc1ccc(F)cc1)C2 (stereo unspecified) | 65 to 67
24 | CC(C)N(CCN1C(=O)/C(=N/NC(N)=O)c2cc(Cl)ccc21)C(C)C | 154 to 155

Row | SMILES | melting point [°C]
25 | O=C1CSCC(c2ccc(F)cc2)N1 (stereo unspecified) | 111 to 112
26 | O=[N+]([O-])c1ccccc1N1CCc2cc(Cl)ccc21 | 85 to 89
27 | CC(=O)C(=[N+]=[N-])C(=O)OCc1ccc([N+](=O)[O-])cc1 | 132
28 | CCCCc1nc(Cl)c(COC)n1Cc1ccc(C(=O)O)cc1 | 126 to 128
29 | CCOP(=O)(OCC)c1cc2cc(N)c(C(F)(F)F)cc2[nH]c1=O | 240 to 244
30 | COC(=O)C(C(=O)OC)c1ccccc1COc1ccccc1C | 99 to 103
31 | CCOC(=O)NC=Cc1ccc(OCC(O)CNC(C)(C)C)cc1 (stereo unspecified) | 99 to 100
32 | CCOC(=O)NC(C)COc1ccc(Oc2ccc(F)cc2)cc1 (stereo unspecified) | 55 to 56
33 | O=Cc1c2ccc3ccccc3c2cc2ccsc12 | 199 to 200
34 | Fc1cc(-c2cc(C(F)(F)F)n3cnc(-c4ccncc4)c3n2)ccc1C(F)(F)F | 267
35 | COc1ccccc1N1CCN(CCNc2ccccc2C(N)=O)CC1 | 134 to 136
36 | O=C(c1ccccc1CBr)c1ccccc1CBr | 113 to 114
37 | CCCc1c(OC2CCCOC2)ccc2c(O)cc(=O)oc12 (stereo unspecified) | 163 to 165
38 | COc1ccccc1CNc1cccc(-c2ccnc3c(C(=O)c4cccs4)cnn23)c1 | 138 to 140
39 | CSc1cc(C(C)=O)ccc1OCCCN1CCC(c2noc3cc(F)ccc23)CC1 | 150 to 152
40 | COc1ccccc1CCl | 69.5 to 70.5
41 | N#CN=C(N)NCCCCNC(=O)[C@@H](Cc1ccccc1)NC(=O)CCCC(=O)O | 63
42 | OCc1cccc(/C=C/c2nc3cc(F)ccc3s2)n1 | 179 to 181
43 | CCOC(=O)c1cc(=O)c2c3c(ccc2o1)C(=O)CC(C(=O)OC)=N3 | 166 to 170
44 | C[C@]12C[C@H](c3ccc(OCCCCCl)cc3)C3=C4CCC(=O)C=C4CC[C@H]3[C@@H]1CCC2=O | 194
45 | N#Cc1cccc(NC(=O)c2ccc(-n3nc(C(F)(F)F)cc3C(F)(F)F)cc2)c1 | 195 to 196
46 | O=C1CCN(Cc2ccc(C(F)(F)F)cc2C(F)(F)F)CC1C(c1ccc(F)cc1)c1ccc(F)cc1 (stereo unspecified) | 104 to 105
47 | O=C(Cc1ccncc1)c1ccc(Cl)cc1 | 95.5 to 97.3
48 | CC(C)(C)n1cc(C(=O)O)c(=O)c2cc(F)c(N3CCNCC3)nc21 | > 270

Row | SMILES | melting point [°C]
49 | CS(=O)(=O)c1ccc(-c2c(-c3ccc(O)cc3)[nH]c3ccc(Cl)cc23)cc1 | 271 to 273
50 | COc1ccc(CN2CC(C(=O)O)CC2=O)cc1OC (stereo unspecified) | 176 to 178
51 | CS(=O)(=S)OCCCCCCCCCCOS(C)(=O)=S (stereo unspecified) | 45 to 52
52 | CCCC(=O)Nc1ccc(N2CCC(NC[C@H](O)COc3cccc4[nH]c5ccccc5c34)CC2)cc1 | 194 to 199
53 | CCCCCCCCCCCCCCCCCCOc1cn(-c2ccccc2)c(CO)cc1=O | 67 to 72
54 | O=C(Cl)c1cc(C(=O)Cl)c(C#Cc2ccccc2)cc1C#Cc1ccccc1 | 157 to 160
55 | Nc1c(-c2ccc(Cl)cc2)nc2ccccc2c1C(=O)O | 243 to 244
56 | CCOC(=O)c1ncc2[nH]c3ccc(C4CC=CCC4)cc3c2c1C (stereo unspecified) | 200 to 201
57 | O=[N+]([O-])c1ccc(Oc2ccc(C3(c4ccc(Oc5ccc([N+](=O)[O-])cc5)cc4)CCC(c4ccccc4)CC3)cc2)cc1 | 216 to 218
58 | CS(=O)(=O)c1ccc(C2=C(c3ccccc3)CCC2)cc1 | 136 to 137
59 | CCOC(=O)CCCCCCn1cnc2ccncc21 | 64 to 65
60 | CC#Cc1ccc(NC(=O)c2cccnc2Cl)cc1 | 136 to 138
61 | CCOC(=O)CCN(C1(C(=O)O)CCCC1)S(=O)(=O)c1ccc(Oc2ccc(F)cc2)cc1 | 164 to 166
62 | O=Cc1c(Cl)n(C2OC(CF)C(O)C2O)c2cc(Cl)c(Cl)cc12 (stereo unspecified) | 207 to 208
63 | CCCC(=O)c1ccc(=O)[nH]c1CCC | 86 to 88
64 | CCn1c(C(F)(F)F)nn(-c2cc(N)c(C(N)=S)cc2F)c1=O | 161
65 | CC(=Cc1ccc(-c2ccccc2)s1)c1ccccc1 | 115 to 125
66 | CCCCCCCCCCCCS(=O)(=O)c1ccc2c(c1)C(=O)c1c(c(O)c3ccccc3c1O)C2=O | 185 to 186
67 | CC(=O)Cc1cc([C@]2(c3cccc(-c4cccnc4F)c3)N=C(N)N(C)C2=O)cn1CCCF | 147 to 150
68 | O=C(Nc1ccc(C(=O)N2Cc3ccccc3Cc3ccccc32)cc1)c1cccc(C(F)(F)F)c1 | 190 to 191
69 | CCC(=O)Cc1cc(OC)ccc1NC(=O)OC(C)(C)C | 80 to 81
70 | CCCCCS(=O)(=O)NC(=O)/C=C/c1ccc(OCCOC)cc1Oc1ncc(NC(=O)OC(C)(C)C)cc1C | 150
71 | COc1ccc2c(c1)C(=O)c1cccc(OC(C)C)c1-2 | 89 to 90
